Experimental findings from PubChem BioAssay (NCI) are described below.

Holding throughout (test): NCI-60 cell line screen, 48 h
The test system of assay [1] is OVCAR-4 ovarian.
Assay [2] deals with HOP-62 NSCLC.
Assay [3] relates to NCI-H226 lung.
For assay [4], the system named is A498 renal.
The subject of assay [5] is OVCAR-8 ovarian.
Assay [6] concerns CAKI-1 renal.
Assay [7] deals with CCRF-CEM leukemia.
The subject of assay [8] is EKVX NSCLC.
Assay [9] deals with DU-145 prostate.
Assay [10] concerns KM12 colon.
Assay [11] relates to SNB-75 CNS.
The test system of assay [12] is SF-268 CNS.
The subject of assay [13] is OVCAR-3 ovarian.
The test system of assay [14] is NCI-H460 lung.
Assay [15] concerns COLO 205 colon.

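Assay format: 96-well plates, 48-hour exposure. Definition used: TGI = concentration required for complete inhibition of growth.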

Regarding `c1cc(-c2ccc(Oc3ccc(-c4ccncc4)cc3)cc2)ccn1`, the TGI was above 100 µM in [1]; above 100 µM in [2]; above 100 µM in assay [3]; above 69.7 µM in assay [4]; above 100 µM in assay [5]; above 27.1 µM in assay [6]. Moreover, the TGI in assay [7] is above 47.3 µM; in assay [8] it was above 67.1 µM; in assay [9] it was above 100 µM; in [10], above 27.4 µM; in assay [11], above 73.7 µM; in [12], above 100 µM. Further, the results for the TGI in assay [13], in [14] and in assay [15] were above 61.8 µM, above 94.2 µM and 18.7 µM, respectively.

Consider `COc1ccc2c(c1)CC[C@@H]1C2CC[C@]2(C)C(=O)N(C)C(=O)CC12` (some centres undefined), for which the TGI in assay [1], in assay [2], in assay [3], in assay [4], in [5] and in [6] was above 100 µM throughout. Besides, the TGI in assay [7], in assay [8], in assay [9], in assay [10], in assay [11] and in [12] was above 100 µM each time. In addition, the TGI in [13], in assay [14] and in [15] was above 100 µM each time.

With `COC(=O)C1(Cc2ccccc2C)Cc2ccc(C)cc2C1=O` (centres undefined), the TGI in [1], in assay [2], in assay [3], in assay [4], in [5] and in assay [6] was above 100 µM in each case. The TGI in [7], in assay [8], in assay [9], in assay [10], in [11] and in assay [12] was above 100 µM throughout. Moreover, the TGI in assay [13] was above 100 µM; in assay [14] it was above 100 µM; in assay [15], 38.1 µM.

In the case of `COc1ccc(/C=N/Nc2nc3ccccc3c(=O)n2-c2ccccc2)cc1`, the TGI in assay [1], in assay [2], in assay [3], in assay [4], in assay [5] and in [6] was above 100 µM each time. The TGI in [7], in assay [8], in assay [9], in assay [10], in [11] and in assay [12] was above 100 µM in each case. Besides, the TGI in assay [13], in [14] and in [15] was above 100 µM throughout.

As to `COC(=O)c1c(OC(C)=O)ccc2c1c1c(n2Cc2ccccc2)C(=O)c2ccccc2C1=O`, the TGI in assay [1] is 74.2 µM; in [2] it was 44.5 µM; in assay [3] it was 49.3 µM; in assay [4] it was 43.6 µM; in assay [5] it was 89.1 µM; in assay [6], 51.2 µM. Also, the TGI is 68.6 µM in assay [7]; 48.3 µM in assay [8]; 36.5 µM in [9]; 47.4 µM in assay [10]; 52.4 µM in [11]; 78.1 µM in assay [12]. In addition, the TGI in [13] was 36.3 µM; in assay [14], above 100 µM; in [15], 30.5 µM.

Turning to `O=C1c2ccccc2-c2ccc(N(Cc3ccc(Br)cc3)Cc3ccc(Br)cc3)cc21`, the TGI in [1], in [2], in assay [3], in assay [4], in [5] and in [6] was above 100 µM in each case. Besides, the TGI in [7] is 46.2 µM; in assay [8] it was above 100 µM; in assay [9], above 100 µM; in assay [10] it was above 100 µM; in [11] it was above 100 µM; in [12], above 100 µM. Also, the TGI in [13], in assay [14] and in assay [15] was above 100 µM in each case.

In the case of `COc1cccc2c(=O)c3c(O)c4cc(N(C)C)ccc4c(OC(C)=O)c3oc12`, the TGI in [1] was 32 µM; in assay [2] it was 41.5 µM; in [3] it was 75.3 µM; in assay [4], 60.8 µM; in assay [5], 37.4 µM; in assay [6] it was 16.9 µM. In addition, the TGI in assay [7] is 13.8 µM; in assay [8] it was 25.8 µM; in assay [9] it was 37.5 µM; in [10], 34.8 µM; in [11], 51.4 µM; in [12] it was 68.4 µM. Further, the TGI turned out to be 13.6 µM in [13], 50.2 µM in assay [14] and 17.8 µM in [15].

Consider `C[N+](C)(C)C(Cc1c[nH]c(=S)[nH]1)C(=O)O` (centres undefined), for which the TGI in assay [1], in assay [2], in assay [3], in assay [4], in assay [5] and in assay [6] was above 100 µM throughout. Also, the TGI in [7], in assay [8], in [9], in [10], in [11] and in assay [12] was above 100 µM in each case. Moreover, the TGI in assay [13], in assay [14] and in assay [15] was above 100 µM each time.

With `O=C1NC(c2ccccc2)C1N(Cc1ccccc1)Cc1ccccc1` (centres undefined), the TGI in [1], in [2], in assay [3], in assay [4], in [5] and in [6] was above 100 µM each time. Further, the TGI in assay [7], in [8], in assay [9], in [10], in assay [11] and in [12] was above 100 µM in each case. The TGI in assay [13], in [14] and in [15] was above 100 µM in each case.

For `CCOC(=O)c1c(C)n(-c2ccc(C)cc2)c2c1cc(O)c1[nH]c3c(c12)CCCC3`, the TGI is 51.3 µM in assay [1]; above 100 µM in assay [2]; 60 µM in [3]; 56.2 µM in assay [4]; 82.3 µM in assay [5]; above 100 µM in [6]. Also, the TGI is 7.64 µM in assay [7]; 99.7 µM in [8]; 42.5 µM in assay [9]; 51.5 µM in assay [10]; 12.4 µM in assay [11]; 55.2 µM in assay [12]. The TGI is 51.1 µM in [13], 84.5 µM in assay [14] and above 100 µM in assay [15].

As to `COc1cc([C@@H]2c3cc4c(cc3[C@@H](N=Cc3ccc(C(=O)O[C@H]5C[C@H]6OC[C@@]6(OC(C)=O)[C@H]6[C@H](OC(=O)c7ccccc7)[C@]7(O)C[C@H](OC(=O)[C@H](OC(=O)c8ccc(C=N[C@@H]9c%10cc%11c(cc%10[C@@H](c%10cc(OC)c(O)c(OC)c%10)[C@H]%10C(=O)OC[C@@H]%109)OCO%11)cc8)[C@@H](NC(=O)c8ccccc8)c8ccccc8)C(C)=C([C@@H](OC(C)=O)C(=O)[C@]56C)C7(C)C)cc3)C3COC(=O)C32)OCO4)cc(C)c1O` (some centres undefined), the TGI in assay [1] was above 50 µM; in assay [2], above 50 µM; in assay [3] it was above 50 µM; in assay [4], 29.2 µM; in assay [5], above 50 µM; in [6], above 50 µM. Further, the TGI is above 50 µM in assay [7]; above 35.2 µM in assay [8]; above 50 µM in [9]; above 50 µM in assay [10]; above 50 µM in [11]; above 50 µM in [12]. Besides, the results for the TGI in assay [13], in assay [14] and in assay [15] were above 31.9 µM, above 50 µM and above 50 µM, respectively.

Take `c1ncc(C23C4C5C6C4C2C6C53)[nH]1` (centres undefined): the TGI in assay [1], in assay [2], in [3], in assay [4], in assay [5] and in assay [6] was above 100 µM throughout. Besides, the TGI in assay [7], in [8], in [9], in [10], in assay [11] and in assay [12] was above 100 µM throughout. The TGI in assay [13], in [14] and in assay [15] was above 100 µM each time.

On to `Cc1c(O)c(OC2OC(CO)C(O)C(O)C2O)cc2c1CC[C@@H]1C2(C)C(=O)C[C@]2(C)[C@@H]([C@@](C)(O)C(O)CCC(C)(C)O)[C@H](O)C[C@@]12C` (some centres undefined), for which the TGI in assay [1], in assay [2], in [3], in assay [4], in [5] and in assay [6] was above 100 µM throughout. In addition, the TGI in assay [7], in [8], in assay [9], in [10], in assay [11] and in [12] was above 100 µM throughout. For the same compound, the TGI in [13], in assay [14] and in assay [15] was above 100 µM throughout.

Take `NC(N)=NCCCS(=O)(=O)Nc1ccc(Nc2c3ccccc3nc3cc([N+](=O)[O-])ccc23)cc1`: the TGI was 48.9 µM in assay [1]; 39.3 µM in [2]; 45.5 µM in assay [3]; 65.8 µM in assay [4]; above 92.9 µM in [5]; above 93.5 µM in assay [6]. Further, the TGI in assay [7] is above 74.9 µM; in assay [8], 70.7 µM; in assay [9], 25.2 µM; in [10], 51.4 µM; in assay [11], 45.8 µM; in assay [12] it was 35.6 µM. Besides, the TGI in assay [13] was found to be 66.4 µM; in [14], 33 µM; in assay [15], 56.2 µM.

In the case of `O=C(CCl)Nc1ccc(-c2nc3ccccc3s2)cc1`, the TGI was 15.2 µM in assay [1]; 12.3 µM in [2]; 5.11 µM in assay [3]; 11.7 µM in assay [4]; 9.66 µM in assay [5]; 3.38 µM in assay [6]. Moreover, the TGI in [7] was above 36.7 µM; in assay [8] it was 17.1 µM; in assay [9] it was 38 µM; in assay [10] it was 11 µM; in [11], 11 µM; in [12], 8.44 µM. The TGI in [13] was 3.61 µM; in [14] it was 7.46 µM; in assay [15] it was 3.82 µM.

Consider `C[C@H]1ON2CCC[C@@H]2[C@@H]1C(=O)N1C2CC3CCC2(CS1(=O)=O)C3(C)C` (some centres undefined), for which the TGI in assay [1], in assay [2], in assay [3], in [4], in assay [5] and in assay [6] was above 100 µM in each case. Also, the TGI in [7], in [8], in [9], in assay [10], in assay [11] and in assay [12] was above 100 µM each time. Moreover, the TGI in assay [13], in [14] and in assay [15] was above 100 µM throughout.

Regarding `O=C(CC(C(=O)c1ccsc1)c1cccs1)c1ccsc1` (centres undefined), the TGI in [1], in [2], in assay [3], in assay [4], in [5] and in assay [6] was above 100 µM in each case. For the same compound, the TGI in [7], in assay [8], in assay [9], in [10], in assay [11] and in assay [12] was above 100 µM in each case. Besides, the TGI in assay [14] and in assay [15] was above 100 µM in each case.
